Source: patent US12257247B2 (Monte Rosa Therapeutics AG, priority 2023, dated 2025)
Read-outs that look alike come from different tables or passages of the source.

Molecular target: T1, VAV1 (Homo sapiens, UniProt P15498+Q96SW2)
T1 construct: A heterozygous VAV1 C-terminal HiBiT knock-in pool was generated at Monte Rosa Therapeutics from a clonal Jurkat cell; endogenous in cells; host or cells: Jurkat clone stably expressing LgBiT, homozygous GSPT1-G575N; heterozygous VAV1-HiBiT knock-in pool
Assay: VAV1 degradation activity, VAV1-HiBiT knock-in Jurkat luminescence assay (Example A, Table 1)
Format: cell-based
Conditions: VAV1-HiBiT knock-in Jurkat cells; for Dmax: Jurkat
How it was run: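 Jurkat cells carrying VAV1-HiBiT knock-in, plated in RPMI/10% FBS with Endurazine live-cell substrate and pre-incubated ~16 h at 37° C. Compound dosed from 10 μM stock; luminescence read 6 and 24 h later. Response normalised to plate negative/positive controls, EC50 from 3-parameter logistic fit (hillslope 1).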

[1] = luminescence read at 6 and 24 hours, read-out: VAV1 Dmax %
[2] = luminescence read at 6 and 24 hours, read-out: VAV1 Dmax %, class
[3] = luminescence read at 6 and 24 hours, read-out: VAV1 DC50
[4] = luminescence read at 6 and 24 hours, read-out: VAV1 DC50 (nM), class
[5] = luminescence read at 6 and 24 hours after compound addition, read-out: VAV1 Dmax %
[6] = luminescence read at 6 and 24 hours after compound addition, read-out: VAV1 Dmax %, class
[7] = luminescence read at 6 and 24 hours after compound addition, read-out: VAV1 DC50
[8] = luminescence read at 6 and 24 hours after compound addition, read-out: VAV1 DC50 (nM), class

| SMILES | Dmax [1] | Dmax [2] | DC50 [3] | DC50 [4] | Dmax [5] | Dmax [6] | DC50 [7] | DC50 [8] |
| --- | --- | --- | --- | --- | --- | --- | --- | --- |
| O=C1CCC(c2cccc(-c3ccc(CN4CC5CC5C4=O)cc3)c2Cl)C(=O)N1 (stereo not shown) [Compound 291] | 93.1% | > 90% | 21.3 nM | ≤ 100 nM |  |  |  |  |
| Nc1ccc(-c2cccc(C3CCC(=O)NC3=O)c2Cl)cc1 (stereo not shown) [Compound 130, 3-(4′-amino-2-chloro-[1,1′-biphenyl]-3-yl)piperidine-2,6-dione] | 84.6% | 60 to 90% | 37.1 nM | ≤ 100 nM |  |  |  |  |
| Cn1ccc(Cn2ncc3cc(-c4cccc(C5CCC(=O)NC5=O)c4Cl)ccc32)n1 (stereo not shown) [Compound 498, 3-(2-chloro-3-(1-((1-methyl-1H-pyrazol-3-yl)methyl)-1H-indazol-5-yl)phenyl)piperidine-2,6-dione] |  |  |  |  | 98% | > 90% | 11.8 nM | ≤ 100 nM |
| Cn1ccc(CN2CCc3cc(-c4cccc(C5CCC(=O)NC5=O)c4Cl)ccc32)n1 (stereo not shown) [Compound 489, 3-(2-chloro-3-(1-((1-methyl-1H-pyrazol-3-yl)methyl)indolin-5-yl)phenyl)piperidine-2,6-dione] |  |  |  |  | 97.8% | > 90% | 2.84 nM | ≤ 100 nM |
| CC(C)Nc1ccc(-c2cccc(C3CCC(=O)NC3=O)c2Cl)cc1 (stereo not shown) [Compound 129, 3-(2-chloro-4′-(isopropylamino)-[1,1′-biphenyl]-3-yl)piperidine-2,6-dione] | 68.2% | 60 to 90% | 240 nM | 100 to 1000 nM |  |  |  |  |
| O=C1CCC(c2cccc(-c3ccc(Cn4ccc(F)cc4=O)cc3)c2Cl)C(=O)N1 (stereo not shown) [Compound 170, 3-(2-chloro-4′-((4-fluoro-2-oxopyridin-1(2H)-yl)methyl)-[1,1′-biphenyl]-3-yl)piperidine-2,6-dione] | 94.2% | > 90% | 69.7 nM | ≤ 100 nM |  |  |  |  |
| O=C1CCC(c2cccc(-c3ccc(N4C(=O)OCCC45CC5)nc3)c2Cl)C(=O)N1 (stereo not shown) [Compound 351, 3-(2-chloro-3-(6-(5-oxo-6-oxa-4-azaspiro[2.5]octan-4-yl)pyridin-3-yl)phenyl)piperidine-2,6-dione] | 87% | 60 to 90% | 82.5 nM | ≤ 100 nM |  |  |  |  |
| O=C1CCC(c2cccc(-c3ccc(-n4ccccc4=O)cc3)c2F)C(=O)N1 (stereo not shown) [Compound 234, 3-(2-fluoro-4′-(2-oxopyridin-1(2H)-yl)-[1,1′-biphenyl]-3-yl)piperidine-2,6-dione] | 75.8% | 60 to 90% | 127 nM | 100 to 1000 nM |  |  |  |  |
| CC1Cc2cc(-c3cccc(C4CCC(=O)NC4=O)c3Cl)ccc2N1 (stereo not shown) [Compound 500, 3-(2-chloro-3-(2-methylindolin-5-yl)phenyl)piperidine-2,6-dione] |  |  |  |  | 98.5% | > 90% | 7.51 nM | ≤ 100 nM |
| O=C1CCC(c2cccc(-c3ccc(N4C(=O)CC45CCOCC5)cc3)c2Cl)C(=O)N1 (stereo not shown) [Compound 418, 3-(2-chloro-4′-(2-oxo-7-oxa-1-azaspiro-[3.5]nonan-1-yl)-[1,1′-biphenyl]-3-yl)piperidine-2,6-dione] | 45.2% | < 60% | ≥ 10000 nM | > 1000 nM |  |  |  |  |
| Cn1ccc(-c2ccc(-c3cccc(C4CCC(=O)NC4=O)c3Cl)cc2)n1 (stereo not shown) [Compound 164, 3-(2-chloro-4′-(1-methyl-1H-pyrazol-3-yl)-[1,1′-biphenyl]-3-yl)piperidine-2,6-dione] | 71.9% | 60 to 90% | 542 nM | 100 to 1000 nM |  |  |  |  |
| CC1(C)CN(c2ccc(-c3cccc(C4CCC(=O)NC4=O)c3Cl)cc2)C(=O)CO1 (stereo not shown) [Compound 311] | 92.7% | > 90% | 21.9 nM | ≤ 100 nM |  |  |  |  |
| Cn1ccc(Cn2ccc3cc(-c4cccc(C5CCC(=O)NC5=O)c4Cl)ccc32)n1 (stereo not shown) [Compound 499, 3-(2-chloro-3-(1-((1-methyl-1H-pyrazol-3-yl)methyl)-1H-indol-5-yl)phenyl)piperidine-2,6-dione] |  |  |  |  | 97.9% | > 90% | 5.45 nM | ≤ 100 nM |
| COc1ccn(Cc2ccc(-c3cccc(C4CCC(=O)NC4=O)c3Cl)cc2)c(=O)c1 (stereo not shown) [Compound 175, 3-[2-chloro-3-[4-[(4-methoxy-2-oxo-1-pyridyl)methyl]phenyl]phenyl]piperidine-2,6-dione] | 87.1% | 60 to 90% | 31.6 nM | ≤ 100 nM |  |  |  |  |
| O=C1CCC(c2cccc(-c3ccc(N4C(=O)OCC45CCC5)nc3)c2Cl)C(=O)N1 (stereo not shown) [Compound 357, 3-(2-chloro-3-(6-(6-oxo-7-oxa-5-azaspiro[3.4]octan-5-yl)pyridin-3-yl)phenyl)piperidine-2,6-dione] | 90.8% | > 90% | 35.8 nM | ≤ 100 nM |  |  |  |  |
| O=C1CCC(c2cccc(-c3ccc(CN4CCC(F)C4=O)cc3)c2Cl)C(=O)N1 (stereo not shown) [Compound 289] | 86.7% | 60 to 90% | 43.3 nM | ≤ 100 nM |  |  |  |  |
| O=C1CCC(c2cccc(-c3cnc(Cc4ncco4)c(F)c3)c2Cl)C(=O)N1 (stereo not shown) [Compound 370, 3-(2-chloro-3-(5-fluoro-6-(oxazol-2-ylmethyl)pyridin-3-yl)phenyl)piperidine-2,6-dione] | 58.1% | < 60% | 1570 nM | > 1000 nM |  |  |  |  |
| O=C1CCC(c2cccc(-c3ccc(Cn4ccc(C(F)(F)F)cc4=O)cc3)c2Cl)C(=O)N1 (stereo not shown) [Compound 171, 3-(2-chloro-4′-((2-oxo-4-(trifluoromethyl)pyridin-1(2H)-yl)methyl)-[1,1′-biphenyl]-3-yl)piperidine-2,6-dione] | 94.9% | > 90% | 93.8 nM | ≤ 100 nM |  |  |  |  |
| CC1CCN(Cc2ccc(-c3cccc(C4CCC(=O)NC4=O)c3Cl)cc2)C(=O)C1 (stereo not shown) [Compound 286] | 94% | > 90% | 15.9 nM | ≤ 100 nM |  |  |  |  |
| O=C1CCC(c2cccc(-c3ccc(N4CCn5nccc5C4=O)cc3)c2Cl)C(=O)N1 (stereo not shown) [Compound 321] | 88.1% | 60 to 90% | 22.5 nM | ≤ 100 nM |  |  |  |  |
| O=C1CCC(c2cccc(-c3ccc(N4Cc5ncccc5C4=O)cc3)c2Cl)C(=O)N1 (stereo not shown) [Compound 466, 3-(2-chloro-4′-(5-oxo-5,7-dihydro-6H-pyrrolo[3,4-b]pyridin-6-yl)-[1,1′-biphenyl]-3-yl)piperidine-2,6-dione] | 35.2% | < 60% | ≥ 10000 nM | > 1000 nM |  |  |  |  |

The remaining lines, values ahead:

| Dmax [1] | Dmax [2] | DC50 [3] | DC50 [4] | Dmax [5] | Dmax [6] | DC50 [7] | DC50 [8] | SMILES |
| --- | --- | --- | --- | --- | --- | --- | --- | --- |
| 97.5% | > 90% | 3.61 nM | ≤ 100 nM |  |  |  |  | Cc1cccc(=O)n1-c1ccc(-c2cccc(C3CCC(=O)NC3=O)c2Cl)cc1 (stereo not shown) [Compound 214, 3-(2-chloro-4′-(6-methyl-2-oxopyridin-1(2H)-yl)-[1,1′-biphenyl]-3-yl)piperidine-2,6-dione] |
| 97.1% | > 90% | 9.19 nM | ≤ 100 nM |  |  |  |  | O=C1CCC(c2cccc(-c3ccc(-n4ccccc4=O)c(F)c3)c2Cl)C(=O)N1 (stereo not shown) [Compound 470, 3-(2-chloro-3′-fluoro-4′-(2-oxopyridin-1(2H)-yl)-[1,1′-biphenyl]-3-yl)piperidine-2,6-dione] |
| 96.6% | > 90% | 10.7 nM | ≤ 100 nM |  |  |  |  | O=C1CCC(c2cccc(-c3ccc(C(=O)N4CCCCC4)cc3)c2Cl)C(=O)N1 (stereo not shown) [Compound 223, 3-(2-chloro-4′-(piperidine-1-carbonyl)-[1,1′-biphenyl]-3-yl)piperidine-2,6-dione] |
| 94% | > 90% | 11 nM | ≤ 100 nM |  |  |  |  | O=C1CN(CCOc2ccc(-c3cccc(C4CCC(=O)NC4=O)c3Cl)cc2)CCN1 (stereo not shown) [Compound 121] |
| 97.9% | > 90% | 3.07 nM | ≤ 100 nM |  |  |  |  | O=C1CC[C@@H](c2cccc(-c3ccc(-n4ccccc4=O)cc3)c2Cl)C(=O)N1 [Compound 211, (S)-3-(2-chloro-4′-(2-oxopyridin-1(2H)-yl)-[1,1′-biphenyl]-3-yl)piperidine-2,6-dione] |
| 96.5% | > 90% | 6.85 nM | ≤ 100 nM |  |  |  |  | O=C1CCC(c2cccc(-c3ccc(Oc4ncccn4)cc3)c2Cl)C(=O)N1 (stereo not shown) [Compound 360, 3-(2-chloro-4′-(pyrimidin-2-yloxy)-[1,1′-biphenyl]-3-yl)piperidine-2,6-dione] |
| 94.4% | > 90% | 15 nM | ≤ 100 nM |  |  |  |  | O=C1CCC(c2cccc(-c3ccc(Cc4ccncn4)cc3)c2Cl)C(=O)N1 (stereo not shown) [Compound 401, 3-(2-chloro-4′-(pyrimidin-4-ylmethyl)-[1,1′-biphenyl]-3-yl)piperidine-2,6-dione] |
| 95.8% | > 90% | 15.2 nM | ≤ 100 nM |  |  |  |  | O=C1CCC(c2cccc(-c3ccc(Cc4cncnc4)cc3)c2Cl)C(=O)N1 (stereo not shown) [Compound 376, 3-(2-chloro-4′-(pyrimidin-5-ylmethyl)-[1,1′-biphenyl]-3-yl)piperidine-2,6-dione] |
| 94.9% | > 90% | 7.27 nM | ≤ 100 nM |  |  |  |  | Cc1cc(-c2cccc(C3CCC(=O)NC3=O)c2Cl)ccc1N (stereo not shown) [Compound 131] |
| 95.5% | > 90% | 12.5 nM | ≤ 100 nM |  |  |  |  | CC1CCCN(Cc2ccc(-c3cccc(C4CCC(=O)NC4=O)c3Cl)cc2)C1=O (stereo not shown) [Compound 287] |
